Data: ChEMBL document CHEMBL1127393 (J Med Chem, 1994)

Tests used:
[1] = Tested for the 50% inhibition level against [125I]- gastrin binding to guinea pig gastric glands; format: functional, tissue-based, Cavia porcellus, Stomach
[2] = molecular target: T1, Gastrin/cholecystokinin type B receptor (Rattus norvegicus, UniProt P30553); assay: Tested for the 50% inhibition level against [125I]- gastrin binding in AR42J cells; format: cell-based, AR-42J
T1 sequence (P30553 whole entry): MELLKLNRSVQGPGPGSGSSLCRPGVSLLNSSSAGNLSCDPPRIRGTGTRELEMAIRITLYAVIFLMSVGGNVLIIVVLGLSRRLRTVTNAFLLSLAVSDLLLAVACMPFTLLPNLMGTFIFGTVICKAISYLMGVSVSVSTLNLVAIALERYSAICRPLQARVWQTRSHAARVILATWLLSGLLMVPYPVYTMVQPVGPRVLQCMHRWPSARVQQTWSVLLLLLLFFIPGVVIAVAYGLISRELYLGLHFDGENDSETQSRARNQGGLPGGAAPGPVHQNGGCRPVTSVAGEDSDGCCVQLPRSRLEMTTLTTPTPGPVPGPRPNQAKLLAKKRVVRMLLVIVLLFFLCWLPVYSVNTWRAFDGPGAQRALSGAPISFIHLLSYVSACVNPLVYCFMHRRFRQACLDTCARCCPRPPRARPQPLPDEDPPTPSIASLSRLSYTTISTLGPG

O=C(CCC(=O)N(Cc1ccccc1)/N=N/CCCl)NCCC(=O)NC(Cc1c[nH]c2ccccc12)C(=O)O (stereo not drawn)
EC50 [1]: 63 µM | EC50 [2]: 200 µM

CSCC[C@H](NC(=O)[C@H](Cc1c[nH]c2ccccc12)NC(=O)CNC(=O)[C@H](Cc1ccc(O)cc1)NC(=O)[C@H](C)NC(=O)[C@H](CCC(=O)O)NC(=O)[C@H](CCC(=O)O)NC(=O)[C@H](CCC(=O)O)NC(=O)[C@H](CCC(=O)O)NC(=O)[C@H](CCC(=O)O)NC(=O)[C@H](CC(C)C)NC(=O)[C@H](Cc1c[nH]c2ccccc12)NC(=O)[C@@H]1CCCN1C(=O)CNC(=O)[C@@H](N)CCC(=O)O)C(=O)N[C@@H](CC(=O)O)C(=O)N[C@@H](Cc1ccccc1)C(N)=O [GASTRIN]
EC50 [1]: 0.6 µM
